The source made the active and inactive calls. No cut-off for these calls is given here.
Test system: Candida albicans
Assay: Antifungal activity against Candida albicans at 100 ug/disk by sensitive disk method
Type: functional, organism-based

For `CC[C@H](O)/C=C/C=C/C=C/C=O`, the Activity was “Active”.

From ChEMBL document CHEMBL1147341, “Unprecedented oxylipins from the marine green alga Acrosiphonia coalita” (J Nat Prod, 1993)
